As a reminder, the IC50 is the concentration needed to halve the response being measured. Higher therefore signals weaker potency in that assay.

Structures are written as SMILES.

The experiment is described as follows: Inhibition of Francisella tularensis FabI.
`C[C@H](c1ccc(Cl)c(Cl)c1)n1cnc2cc3c(cc21)CCC3` displayed a concentration for half-maximal inhibition (IC50) of 1840 nM. Then `C[C@@H](c1ccc(Cl)c(Cl)c1)n1cnc2cc3c(cc21)CCCC3`, with 14 nM; and `C[C@H](c1ccc(Cl)c(Cl)c1)n1cnc2cc3c(cc21)CCCC3`, with 7800 nM; and `C[C@@H](c1ccc(Cl)c(Cl)c1)n1cnc2cc3c(cc21)CCC3`, with 16 nM.

Values taken from ChEMBL document CHEMBL4219258, “Determination of absolute configuration and binding efficacy of benzimidazole-based FabI inhibitors through the support of electronic circular dichroism and MM-GBSA techniques” (Bioorg Med Chem Lett, 2018).
